Data: the supplement of paper PMC10307832

What was measured:
Assay in all cases: relative viability (nuclei count vs DMSO), 5 days (fraction); higher = more cells survive
Carboplatin + Linsitinib = compound: C1CC(C1)(C(=O)O)C(=O)O.[NH2-].[NH2-].[Pt+2] [Carboplatin] + C[C@]1(O)C[C@@H](c2nc(-c3ccc4ccc(-c5ccccc5)nc4c3)c3c(N)nccn32)C1 [Linsitinib] (partner 1 µM)
Procedure, shortened: (§1)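 Lung cancer cell lines were pin-tool dosed in 1536-well plates on the day after seeding, with either a lone drug or a fixed anchor-drug dose plus five library-drug doses (not always all listed) in √10 steps. Nuclei were counted on 4× images after 5 days. Relative viability is the ratio of treated-well to vehicle-well nuclei counts, with each value a median of duplicate plates.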

GSK126 + Navitoclax = compound: CC[C@H](C)N1C=C(C2=C(C=C(C=C21)C3=CN=C(C=C3)N4CCNCC4)C(=O)NCC5=C(C=C(NC5=O)C)C)C [GSK126] + CC1(C)CCC(c2ccc(Cl)cc2)=C(CN2CCN(c3ccc(C(=O)NS(=O)(=O)c4ccc(N[C@H](CCN5CCOCC5)CSc5ccccc5)c(S(=O)(=O)C(F)(F)F)c4)cc3)CC2)C1 [Navitoclax] (partner 0.5 µM)
Procedure, shortened: as §1

MLN4924 + Foretinib = compound: NS(=O)(=O)OC[C@@H]1C[C@@H](n2ccc3c(N[C@H]4CCc5ccccc54)ncnc32)C[C@@H]1O [MLN4924] + COc1cc2c(Oc3ccc(NC(=O)C4(C(=O)Nc5ccc(F)cc5)CC4)cc3F)ccnc2cc1OCCCN1CCOCC1 [Foretinib] (partner 0.25 µM)
Procedure, shortened: as §1

MLN4924 + Alpelisib = compound: NS(=O)(=O)OC[C@@H]1C[C@@H](n2ccc3c(N[C@H]4CCc5ccccc54)ncnc32)C[C@@H]1O [MLN4924] + Cc1nc(NC(=O)N2CCC[C@H]2C(N)=O)sc1-c1ccnc(C(C)(C)C(F)(F)F)c1 [Alpelisib] (partner 2 µM)
Procedure, shortened: as §1

Row | Cell Line | relative viability (Carboplatin + Linsitinib; first compound 0.08 µM) | relative viability (Carboplatin + Linsitinib; first compound 0.253 µM) | relative viability (Carboplatin + Linsitinib; first compound 0.8 µM) | relative viability (Carboplatin + Linsitinib; first compound 2.53 µM) | relative viability (Carboplatin + Linsitinib; first compound 8 µM) | relative viability (GSK126 + Navitoclax; first compound 0.08 µM) | relative viability (GSK126 + Navitoclax; first compound 0.253 µM) | relative viability (GSK126 + Navitoclax; first compound 0.8 µM) | relative viability (GSK126 + Navitoclax; first compound 2.53 µM) | relative viability (GSK126 + Navitoclax; first compound 8 µM) | relative viability (MLN4924 + Foretinib; first compound 0.04 µM) | relative viability (MLN4924 + Foretinib; first compound 0.1265 µM) | relative viability (MLN4924 + Foretinib; first compound 0.4 µM) | relative viability (MLN4924 + Foretinib; first compound 1.265 µM) | relative viability (MLN4924 + Foretinib; first compound 4 µM) | relative viability (MLN4924 + Alpelisib; first compound 0.04 µM) | relative viability (MLN4924 + Alpelisib; first compound 0.1265 µM) | relative viability (MLN4924 + Alpelisib; first compound 0.4 µM) | relative viability (MLN4924 + Alpelisib; first compound 1.265 µM) | relative viability (MLN4924 + Alpelisib; first compound 4 µM)
1 | LOU-NH91 | 1.11 | 0.9 | 0.924 | 0.946 | 0.891 | 0.732 | 0.656 | 0.68 | 0.751 | 0.706 | 0.945 | 0.952 | 0.896 | 0.539 | 0.413 | 0.804 | 1.02 | 0.855 | 0.407 | 0.476
2 | NCI-H1793 | 1.04 | 1.1 | 0.675 | 0.848 | 0.839 | 0.503 | 0.491 | 0.379 | 0.369 | 0.416 | 0.822 | 1.08 | 0.957 | 0.461 | 0.256 | 0.804 | 0.801 | 0.732 | 0.513 | 0.276
3 | NCI-H441 | 0.608 | 0.506 | 0.662 | 0.544 | 0.573 | 0.948 | 0.429 | 0.578 | 0.878 | 0.678 | 0.923 | 0.79 | 0.515 | 0.238 | 0.183 | 0.549 | 0.526 | 0.296 | 0.123 | 0.168
4 | RERF-LC-KJ | 0.913 | 0.895 | 0.97 | 0.807 | 0.726 | 1.29 | 1.02 | 1.18 | 0.956 | 0.828 | 0.745 | 0.482 | 0.247 | 0.202 | 0.216 | 0.89 | 0.815 | 0.206 | 0.183 | 0.237
5 | H3255 | 0.971 | 0.941 | 0.949 | 0.87 | 0.722 | 0.591 | 0.606 | 0.5 | 0.522 | 0.505 | 0.799 | 0.746 | 0.34 | 0.285 | 0.278 | 0.694 | 0.548 | 0.265 | 0.175 | 0.242
6 | A-427 | 1.07 | 1.08 | 1.03 | 1.02 | 1.12 | 1.04 | 1 | 0.836 | 0.959 | 0.845 | 0.742 | 0.236 | 0.264 | 0.185 | 0.178 | 0.728 | 0.334 | 0.28 | 0.183 | 0.2
